Laboratory results from PubChem BioAssay (NCI).
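Dose response: 5 concentrations. Exposure: 48 h. Format: 96-well plates. Endpoint: linear interpolation; highest concentration if not reached. GI50: concentration for 50% inhibition of growth. TGI: total growth inhibition.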

Columns and labels:
Experiment in all cases: growth of human tumour cells (NCI), 48 h
T-47D breast = test system: T-47D breast
HCT-15 colon = test system: HCT-15 colon
SNB-75 CNS = test system: SNB-75 CNS
MOLT-4 leukemia = test system: MOLT-4 leukemia
SNB-19 CNS = test system: SNB-19 CNS
NCI-H23 lung = test system: NCI-H23 lung
SF-539 CNS = test system: SF-539 CNS
UACC-62 melanoma = test system: UACC-62 melanoma
SR leukemia = test system: SR leukemia
HL-60(TB) leukemia = test system: HL-60(TB) leukemia
SN12C renal = test system: SN12C renal
786-0 renal = test system: 786-0 renal
HCT-116 colon = test system: HCT-116 colon
SK-MEL-5 melanoma = test system: SK-MEL-5 melanoma
KM12 colon = test system: KM12 colon
HCC-2998 colon = test system: HCC-2998 colon
PC-3 prostate = test system: PC-3 prostate
CCRF-CEM leukemia = test system: CCRF-CEM leukemia
A498 renal = test system: A498 renal
EKVX NSCLC = test system: EKVX NSCLC
NCI-H226 lung = test system: NCI-H226 lung
SK-MEL-2 melanoma = test system: SK-MEL-2 melanoma
SF-295 CNS = test system: SF-295 CNS
NCI-H460 lung = test system: NCI-H460 lung
K-562 leukemia = test system: K-562 leukemia
NCI/ADR-RES ovarian = test system: NCI/ADR-RES ovarian
RXF 393 renal = test system: RXF 393 renal
HT29 colon = test system: HT29 colon
DU-145 prostate = test system: DU-145 prostate
SF-268 CNS = test system: SF-268 CNS
OVCAR-4 ovarian = test system: OVCAR-4 ovarian
MDA-MB-435 = test system: MDA-MB-435
ACHN renal = test system: ACHN renal
HOP-62 NSCLC = test system: HOP-62 NSCLC
OVCAR-5 ovarian = test system: OVCAR-5 ovarian
IGROV1 ovarian = test system: IGROV1 ovarian
TK-10 renal = test system: TK-10 renal
OVCAR-8 ovarian = test system: OVCAR-8 ovarian
UO-31 renal = test system: UO-31 renal
MDA-MB-231 breast = test system: MDA-MB-231 breast
UACC-257 melanoma = test system: UACC-257 melanoma
MCF7 breast = test system: MCF7 breast
HOP-92 NSCLC = test system: HOP-92 NSCLC
A549 NSCLC = test system: A549 NSCLC
CAKI-1 renal = test system: CAKI-1 renal
SW-620 colon = test system: SW-620 colon
SK-MEL-28 melanoma = test system: SK-MEL-28 melanoma
RPMI-8226 leukemia = test system: RPMI-8226 leukemia
SK-OV-3 ovarian = test system: SK-OV-3 ovarian
MALME-3M melanoma = test system: MALME-3M melanoma
LOX IMVI melanoma = test system: LOX IMVI melanoma
U251 CNS = test system: U251 CNS
NCI-H522 lung = test system: NCI-H522 lung
BT-549 breast = test system: BT-549 breast
COLO 205 colon = test system: COLO 205 colon
M14 melanoma = test system: M14 melanoma
HS 578T breast = test system: HS 578T breast

Cc1ccc(C)c(COc2cc(NC(=O)c3ccc4c(c3)OCO4)ccc2N(C)S(C)(=O)=O)c1
GI50 (T-47D breast): 807 nM | TGI (T-47D breast): > 100000 nM | GI50 (HCT-15 colon): 127 nM | TGI (HCT-15 colon): > 100000 nM | GI50 (SNB-75 CNS): 111 nM | TGI (SNB-75 CNS): 1180 nM | GI50 (MOLT-4 leukemia): 228 nM | TGI (MOLT-4 leukemia): > 100000 nM | GI50 (SNB-19 CNS): 332 nM | TGI (SNB-19 CNS): > 100000 nM | GI50 (NCI-H23 lung): 213 nM | TGI (NCI-H23 lung): > 100000 nM | GI50 (SF-539 CNS): 118 nM | TGI (SF-539 CNS): 790 nM | GI50 (UACC-62 melanoma): 179 nM | TGI (UACC-62 melanoma): > 100000 nM | GI50 (SR leukemia): 45.7 nM | TGI (SR leukemia): > 100000 nM | GI50 (HL-60(TB) leukemia): 38.7 nM | TGI (HL-60(TB) leukemia): 489 nM | GI50 (SN12C renal): 447 nM | TGI (SN12C renal): > 100000 nM | GI50 (786-0 renal): 192 nM | GI50 (HCT-116 colon): 66.2 nM | TGI (HCT-116 colon): 1120 nM | GI50 (SK-MEL-5 melanoma): 172 nM | TGI (SK-MEL-5 melanoma): 1670 nM | GI50 (KM12 colon): 77 nM | TGI (KM12 colon): 1060 nM | GI50 (HCC-2998 colon): 132 nM | TGI (HCC-2998 colon): 397 nM | GI50 (PC-3 prostate): 131 nM | TGI (PC-3 prostate): > 100000 nM | GI50 (CCRF-CEM leukemia): 86.6 nM | TGI (CCRF-CEM leukemia): > 100000 nM | GI50 (A498 renal): 122 nM | TGI (A498 renal): 853 nM | GI50 (EKVX NSCLC): 466 nM | TGI (EKVX NSCLC): > 100000 nM | GI50 (NCI-H226 lung): 904 nM | TGI (NCI-H226 lung): > 100000 nM | GI50 (SK-MEL-2 melanoma): 595 nM | GI50 (SF-295 CNS): 62.1 nM | TGI (SF-295 CNS): 439 nM | GI50 (NCI-H460 lung): 139 nM | TGI (NCI-H460 lung): 711 nM | GI50 (K-562 leukemia): 44.6 nM | TGI (K-562 leukemia): > 100000 nM | GI50 (NCI/ADR-RES ovarian): 56.2 nM | TGI (NCI/ADR-RES ovarian): 407 nM | GI50 (RXF 393 renal): 128 nM | TGI (RXF 393 renal): 403 nM | GI50 (HT29 colon): 114 nM | TGI (HT29 colon): 2340 nM | GI50 (DU-145 prostate): 172 nM | TGI (DU-145 prostate): 543 nM | GI50 (SF-268 CNS): 310 nM | TGI (SF-268 CNS): > 100000 nM | GI50 (OVCAR-4 ovarian): 648 nM | TGI (OVCAR-4 ovarian): > 100000 nM | GI50 (MDA-MB-435): 24.8 nM | TGI (MDA-MB-435): 71.8 nM | GI50 (ACHN renal): 420 nM | TGI (ACHN renal): > 100000 nM | GI50 (HOP-62 NSCLC): 570 nM | TGI (HOP-62 NSCLC): > 100000 nM | GI50 (OVCAR-5 ovarian): 513 nM | TGI (OVCAR-5 ovarian): > 100000 nM | GI50 (IGROV1 ovarian): 237 nM | TGI (IGROV1 ovarian): > 100000 nM | GI50 (TK-10 renal): 402 nM | TGI (TK-10 renal): > 100000 nM | GI50 (OVCAR-8 ovarian): 286 nM | TGI (OVCAR-8 ovarian): > 100000 nM | GI50 (UO-31 renal): 348 nM | TGI (UO-31 renal): > 100000 nM | GI50 (MDA-MB-231 breast): 231 nM | TGI (MDA-MB-231 breast): 798 nM | GI50 (UACC-257 melanoma): 1870 nM | TGI (UACC-257 melanoma): > 100000 nM | GI50 (MCF7 breast): 71.6 nM | TGI (MCF7 breast): > 100000 nM | GI50 (HOP-92 NSCLC): 2590 nM | TGI (HOP-92 NSCLC): > 100000 nM | GI50 (A549 NSCLC): 282 nM | TGI (A549 NSCLC): > 36900 nM | GI50 (CAKI-1 renal): 160 nM | TGI (CAKI-1 renal): > 100000 nM | GI50 (SW-620 colon): 77.8 nM | TGI (SW-620 colon): > 100000 nM | GI50 (SK-MEL-28 melanoma): 3740 nM | TGI (SK-MEL-28 melanoma): > 100000 nM | GI50 (RPMI-8226 leukemia): 319 nM | TGI (RPMI-8226 leukemia): > 100000 nM | GI50 (SK-OV-3 ovarian): 217 nM | TGI (SK-OV-3 ovarian): > 100000 nM | GI50 (MALME-3M melanoma): 111 nM | TGI (MALME-3M melanoma): > 100000 nM | GI50 (LOX IMVI melanoma): 79.3 nM | TGI (LOX IMVI melanoma): > 100000 nM | GI50 (U251 CNS): 238 nM | TGI (U251 CNS): > 46800 nM | GI50 (NCI-H522 lung): 81.5 nM | TGI (NCI-H522 lung): 424 nM | GI50 (BT-549 breast): 374 nM | TGI (BT-549 breast): > 100000 nM | GI50 (COLO 205 colon): 257 nM | TGI (COLO 205 colon): 816 nM | GI50 (M14 melanoma): 65.7 nM | TGI (M14 melanoma): 560 nM | GI50 (HS 578T breast): 36.3 nM | TGI (HS 578T breast): 307 nM
